Experimental data as given in ChEMBL document CHEMBL1129916, “Topoisomerase II inhibitors. Synthetic hybridization of 4-quinolones and anthracyclines” (Bioorg Med Chem Lett, 1997).
Calls of active or inactive are those of the source. The calls are words filed in the database; no cut-off is given here.

Experiments:
B16-F10 = test: In vitro inhibitory activity against B16F10 tumor cells; IA= Inactive; type: functional, cell-based, Mus musculus
Nucleic Acid = test: Inhibitory against Escherichia coli derived DNA gyrase II as ability to induce strand breakage; IA means Inactive; type: nucleic-acid assay
[1] = In vitro activity in agar dilution-streak assay against Gram-negative bacteria at 100 ug/ml; IA means Inactive; type: functional
Bacteria = test: In vitro activity in agar dilution-streak assay against Gram-positive bacteria at 100 ug/ml; IA means Inactive; type: functional, organism-based
HT-29 = test: In vitro inhibitory activity against HT-29 tumor cells; IA= inactive; type: functional, cell-based, Homo sapiens
P388 = test: In vitro inhibitory activity against P-388 tumor cells; IA= Inactive; type: functional, cell-based, Mus musculus
A549 = test: In vitro inhibitory activity against A549 tumor cell culture; IA= Inactive; type: functional, cell-based, Homo sapiens

O=C1c2ccccc2C(=O)c2c(O)c3c(c(O)c21)C(=O)C(C(=O)O)CN3c1ccc(F)cc1 (stereo not drawn)
IC50 (B16-F10): Not Active
Activity (Nucleic Acid): inactive
Activity [1]: inactive
Activity (Bacteria): inactive
IC50 (HT-29): Not Active
IC50 (P388): Not Active
IC50 (A549): Not Active

O=C1c2ccccc2C(=O)c2c(O)c3c(c(O)c21)C(=O)C(C(=O)O)CN3C1CC1 (stereo not drawn)
IC50 (B16-F10): Not Active
Activity (Nucleic Acid): inactive
Activity [1]: inactive
Activity (Bacteria): inactive
IC50 (HT-29): Not Active
IC50 (P388): Not Active
IC50 (A549): Not Active

O=C(O)c1cn(C2CC2)c2cc(N3CCNCC3)c(F)cc2c1=O
Activity [1]: inactive
Activity (Bacteria): inactive

CCN1CC(C(=O)O)C(=O)c2c(O)c3c(c(O)c21)C(=O)c1ccccc1C3=O (stereo not drawn)
IC50 (B16-F10): Not Active
Activity (Nucleic Acid): inactive
Activity [1]: inactive
Activity (Bacteria): inactive
IC50 (HT-29): Not Active
IC50 (P388): Not Active
IC50 (A549): Not Active
